# Data as given in patent US20150152469A1, “FLUORESCENT PROBE FOR HIGH-SENSITIVITY PANCREATIC FLUID DETECTION, AND METHOD FOR DETECTING PANCREATIC FLUID” (THE UNIVERSITY OF TOKYO, priority 2012, published 2015).
# What was measured:
# [1] = Fluorescent imaging of human pancreatic fluid; conditions: for visualization of adhesion points of the pancreatic fluids: 50 μM probe solution sprayed on paper (gPhe-HMRG with trypsin), after several minutes from spraying
# Experimental: Fluorescent imaging of pancreatic fluids on an excised surface of the pancreas was carried out by using gPhe-HMRG and gGlu-HMRG as fluorescent probes. In consideration of, for example, cases where materials retaining pancreatic fluids, which are measurement subjects, are used during surgeries, wiping towels and filter paper for experiments (those having low background fluorescence from paper itself), which had been used in clinical practice, were used as the materials. For specific procedures, apiece of the pancreas immediately after being excised by surgical operations was collected, the wiping towel and filter paper was adhered to its excised surface, thereby adhering the pancreatic fluid thereto. Then, probe solutions of gPhe-HMRG (including trypsin) and gGlu-HMRG were sprayed to the adhered paper to start imaging. For the probe solutions, 10 μL of a DMSO solution (10 mM) of each probe was dissolved in 2 mL of RPMI 1640 medium (GINBO 11835) at a final concentration of 50 μM, and, for gPhe-HMRG, a solution obtained by adding trypsin (52.6 BTEE units) thereto was used. For an excitation filter and a fluorescence filter, long path filters of 435-480 nm and 490 nm, respectively, were used.
# [2] = target: T1, chymotrypsin (a-chymotrypsin derived from bovine pancreas) (Bos taurus, UniProt P00766); test: Fluorescence assay using chymotrypsin; assay type: biochemical; conditions: 2.4 μM probe, 4.6 U chymotrypsin
# T1 construct: a-chymotrypsin derived from bovine pancreas; purchased SIGMA C4129-250MG; host or cells: bovine pancreas
# Experimental: 3 μL of a 2.4 mM gPhe-HMRC dimethylsulfoxide (DMSO) solution was dissolved in 3 mL of 0.1 M sodium phosphate buffer (pH 7.4) at a final concentration of 2.4 μM, 4.6 U of chymotrypsin (a-chymotrypsin derived from bovine pancreas: SIGMA C4129-250MG) was added thereto to conduct an enzymatic reaction at 37° C. The excitation wavelength was set to 501 nm.
# [3] = test system: chymotrypsin activities in pancreatic fluid; test: In vitro fluorescence assay using human pancreatic fluid (gPhe-HMRG); assay type: biochemical
# Experimental: (§1) gPhe-HMRG synthesized in Example 1 and gGlu-HMRG, which has a glutamic acid residue, synthesized in Example 2 were used as fluorescent probes to evaluate enzymatic activities of pancreatic fluid obtained from patients of pancreatic cancer or bile duct cancer. 1 μL of a fluorescent probe DMSO solution (1 mM) was dissolved in 180 μL of a 0.1 M sodium phosphate buffer (pH 7.4) at a final concentration of […], 20 μL of a pancreatic fluid was added thereto, and an enzymatic reaction was carried out at 37° C. for 30 minutes. In the case of gPhe-HMRG, a probe solution to which 57 BAEE units of trypsin (bovine pancreas-derived trypsin: SIGMA T1426-100MG) had been added was used to carry out the same enzymatic reaction. In addition, as to inhibitor treatments for comparisons, 1 μL of an aqueous solution (10 mM) of a γ-glutamyltransferase inhibitor (GGs-Top: Wako Pure Chemical 075-05471) in the case of gGlu-HMRG, and 1 μL of a DMSO solution (10 mM) of a chymotrypsin inhibitor (chymostatin: SIGMA C7268) in the case of gPhe-HMRG were each added to probe solutions. For excitation wavelengths and fluorescence wavelengths of a fluorescence measurement device, 478-492 nm and 523-548 nm, respectively, were used.
# chymotrypsin = test: Fluorescence response to drain samples of pancreatic fluid, ascitic fluids and intestinal fluids (gPhe-HMRG, gPhe-HMRG-Try); assay type: biochemical, human
# Experimental: (§2) Furthermore, response behaviors of the fluorescent probes against body fluids other than pancreatic fluid were compared by using drain samples which were collected from patients who received resectional surgeries of the pancreas. With respect to a total of 76 samples of pancreatic fluid, ascitic fluids and intestinal fluids which were collected from 18 patients, changes in fluorescent intensities were measured for gGlu-HMRG, gPhe-HMRG, and trypsin-added gPhe-HMRG (gPhe-HMRG-Try).
# (§3) 180 μL of a probe solution (1.1 μM) was poured into each well of a 96-well microplate reader (SH-8000, Hitachi), and then, 20 μL of a collected sample was added thereto, followed by mixing them. The sample was incubated at 37° C., and fluorescence responses were measured after 5 minutes, 15 minutes and 30 minutes. Trypsin was added to gPhe-HMRG-Try at a final concentration of 0.525 μBTEE/μL. For an excitation wavelength and a fluorescence wavelength for the fluorescence measurement device, 490 nm and 520 nm, respectively, were used. The obtained results of fluorescence responses are shown as average values of respective samples in FIG. 5.
# γ-glutamyltransferase = test: Fluorescence response to drain samples of pancreatic fluid, ascitic fluids and intestinal fluids (gGlu-HMRG); assay type: biochemical, human; conditions: drain samples from patients, 37° C., 5, 15, 30 minutes
# Experimental: as §2, §3
# [4] = target: T2, γ-glutamyltransferase activity in a pancreatic fluid (Homo sapiens, UniProt P19440); test: In vitro fluorescence assay using human pancreatic fluid (gGlu-HMRG); assay type: biochemical; conditions: 0.9 μM probe, 37° C., 30 minutes
# T2 construct: pancreatic fluid obtained from patients of pancreatic cancer or bile duct cancer; from tissue; host or cells: pancreatic fluid from patients with pancreatic cancer or bile duct cancer
# T2 sequence (P19440 1-380 limits assumed): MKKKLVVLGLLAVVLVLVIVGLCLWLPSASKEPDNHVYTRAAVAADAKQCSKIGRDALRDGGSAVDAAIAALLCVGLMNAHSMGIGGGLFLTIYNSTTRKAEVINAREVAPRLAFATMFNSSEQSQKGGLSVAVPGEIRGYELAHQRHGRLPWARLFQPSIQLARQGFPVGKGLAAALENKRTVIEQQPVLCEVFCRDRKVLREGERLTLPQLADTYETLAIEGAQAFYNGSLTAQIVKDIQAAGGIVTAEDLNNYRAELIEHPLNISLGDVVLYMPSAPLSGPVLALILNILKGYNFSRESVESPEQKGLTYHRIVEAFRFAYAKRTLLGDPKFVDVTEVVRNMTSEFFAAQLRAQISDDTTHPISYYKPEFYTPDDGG
# T2 sequence (P19440 381-569 limits assumed): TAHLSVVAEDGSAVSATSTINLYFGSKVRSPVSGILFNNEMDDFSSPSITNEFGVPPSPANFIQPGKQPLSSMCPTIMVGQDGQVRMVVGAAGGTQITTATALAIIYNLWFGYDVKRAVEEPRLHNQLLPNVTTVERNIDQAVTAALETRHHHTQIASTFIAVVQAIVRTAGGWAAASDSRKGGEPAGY
# Experimental: as §1
"change in absorption by chymotrypsin addition ([2]; 0.1 M sodium phosphate buffer pH 7.4, 37° C.)","change in fluorescent intensity by chymotrypsin addition ([2]; pH 7.4, 37° C., excitation 501 nm)","time until fluorescent intensity reached saturation after chymotrypsin addition ([2]; fluorescence at 524 nm, 37° C.)","fluorescent intensity when γ-glutamyltransferase-specific inhibitor (GGs-Top) was added ([4]; pancreatic fluid, inhibitor added)",Substance,visualization of adhesion points of the pancreatic fluids [1],fluorescence response at adhesion points of body fluids other than the pancreatic fluid ([1]; 50 μM probe with trypsin sprayed on paper),"change in fluorescent intensity by addition of pancreatic fluid sample, trypsin included ([3]; 0.9 μM probe, 57 BAEE units trypsin, pancreatic fluid samples No. 1 to No. 5, 37° C., 30 minutes)",fluorescence response against chymotrypsinogen (precursor) ([3]; pancreatic fluid without trypsin addition),"fluorescent intensity when chymostatin (chymotrypsin inhibitor) was added ([3]; pancreatic fluid, trypsin, chymostatin added, 37° C., 30 minutes)","fluorescent response to body fluids, trypsin not added (chymotrypsin; pancreatic fluid, ascitic fluids, intestinal fluids from patients, 37° C., 5, 15, 30 minutes)",fluorescence response compared with gGlu-HMRG (chymotrypsin; trypsin added),fluorescent response to ascitic fluids (γ-glutamyltransferase),fluorescent response to pancreatic fluids (γ-glutamyltransferase),fluorescent response to intestinal fluids (γ-glutamyltransferase; compared with pancreatic fluids),"change in fluorescent intensity by addition of pancreatic fluid sample ([4]; 20 μL pancreatic fluid (samples No. 1 to No. 5), no inhibitor)"
significant increases,significant increases,about 600 seconds,–,glutamyl-phenylalanine hydroxymethyl rhodamine green [gPhe-HMRG],successfully accomplished,any fluorescence response was not observed,remarkable increases in fluorescent intensities were observed in all the pancreatic fluid samples,hardly showed a fluorescence response,significantly decreased,significant fluorescent responses were not observed for all the body fluids,superior,–,–,–,–
–,–,–,significantly decreased,γ-glutamyl hydroxymethyl rhodamine green [gGlu-HMRG],successfully accomplished,–,–,–,–,–,–,increases in fluorescent intensities were observed,an increase in fluorescent intensities was observed,"a larger increase in fluorescent intensities was observed for intestinal fluids, than for the case of pancreatic fluids",increases in fluorescent intensities were observed in all pancreatic fluid samples
